The values that follow come from ChEMBL document CHEMBL5154917 (J Med Chem, 2022).

SMILES strings stand for the structures. The source made the active and inactive calls. The rule behind the calls is not given here.

In data set [1] the target is T1, Serine/threonine-protein kinase RIO1 (Homo sapiens) (UniProt Q9BRS2).
T1 sequence (whole entry): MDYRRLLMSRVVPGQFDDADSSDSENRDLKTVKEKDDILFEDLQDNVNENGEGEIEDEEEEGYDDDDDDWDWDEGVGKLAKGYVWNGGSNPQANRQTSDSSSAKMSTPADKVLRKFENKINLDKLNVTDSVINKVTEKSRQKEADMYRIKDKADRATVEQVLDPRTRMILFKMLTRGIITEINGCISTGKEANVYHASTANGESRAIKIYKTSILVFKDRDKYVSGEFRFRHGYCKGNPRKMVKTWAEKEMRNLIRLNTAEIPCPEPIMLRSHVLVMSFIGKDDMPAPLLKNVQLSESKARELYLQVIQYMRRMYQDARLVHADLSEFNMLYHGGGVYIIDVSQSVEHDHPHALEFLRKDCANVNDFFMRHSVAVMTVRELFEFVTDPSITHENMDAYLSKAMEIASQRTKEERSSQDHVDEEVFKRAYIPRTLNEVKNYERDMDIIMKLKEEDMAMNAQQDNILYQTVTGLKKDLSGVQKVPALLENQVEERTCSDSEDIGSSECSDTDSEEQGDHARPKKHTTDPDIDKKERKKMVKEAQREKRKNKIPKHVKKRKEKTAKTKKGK
The data set can be described thus: Binding affinity to RIOK1 in human MKN-1 cells assessed as negative shift in melting temperature at 5 uM incubated for 3 hrs followed by heat treatment at 52 to 62 degC for 3 mins by CETSA. The conditions noted are these: time 183.0 min. Type of data set: cell-based.

The test system of the next data set is HT-29. The data set can be described thus: Antiproliferative activity against human HT-29 cells assessed as cell growth inhibition incubated for 72 hrs by CCK-8 assay. Particulars: HT-29, 72 h.
A short description of data set [2]: Aqueous solubility of the compound. Type of data set: physicochemical. The conditions noted are these: buffer.
The species entered for data set [3] is Homo sapiens. Briefly: Binding affinity to human partial length FLT3 ITD D835V mutant expressed in mammalian expression system assessed as residual activity at 1 uM by KINOMEscan assay relative to control.
In data set [4] the target is T2, Serine/threonine-protein kinase RIO3 (Homo sapiens) (UniProt O14730).
T2 sequence (whole entry): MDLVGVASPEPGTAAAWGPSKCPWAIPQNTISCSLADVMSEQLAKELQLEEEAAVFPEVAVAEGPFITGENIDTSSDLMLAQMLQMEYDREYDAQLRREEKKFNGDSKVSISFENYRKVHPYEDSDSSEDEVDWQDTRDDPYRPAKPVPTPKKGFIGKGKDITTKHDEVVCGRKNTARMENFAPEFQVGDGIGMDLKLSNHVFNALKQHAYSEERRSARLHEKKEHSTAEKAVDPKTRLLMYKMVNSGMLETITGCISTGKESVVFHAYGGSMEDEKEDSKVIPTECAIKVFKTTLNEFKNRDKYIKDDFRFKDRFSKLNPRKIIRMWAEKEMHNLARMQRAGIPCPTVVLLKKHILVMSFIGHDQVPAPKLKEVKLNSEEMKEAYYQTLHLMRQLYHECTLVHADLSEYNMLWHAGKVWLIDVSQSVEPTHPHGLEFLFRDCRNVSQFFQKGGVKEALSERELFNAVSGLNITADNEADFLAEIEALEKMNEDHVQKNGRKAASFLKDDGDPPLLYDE
Briefly: Binding affinity to RIOK3 in human MKN-1 cells assessed as negative shift in melting temperature at 5 uM incubated for 3 hrs followed by heat treatment at 52 to 62 degC for 3 mins by CETSA. The data set is classed as cell-based. Particulars: time 183.0 min.

The test system of data set [5] is MKN-1. Briefly: Antiproliferative activity against human MKN-1 cells assessed as cell growth inhibition incubated for 72 hrs by CCK-8 assay. The conditions noted are these: MKN-1, 72 h. For orientation: Tetrazolium assays rely on reduction of a dye to a coloured formazan, in cell work by metabolically active cells.
A short description of data set [6]: Toxicity in CB17-SCID mouse xenografted with human MKN-1 cells assessed as mortality at 25 mg/kg, ip qd for 18 consecutive days. The data set is classed as organism-based. Particulars: in vivo, 432 h, time 18 day. (In general: In xenograft studies the graft and the host belong to different species.)
Data set [7] is described as follows: Solubility of compound in organic solvents. Type of data set: physicochemical.
Data set [8] can be described thus: Cmax in Sprague-Dawley rat administered orally. Type of data set: ADME. Also on record: route po. The conditions noted are these: in vivo, po.
For data set [9], the target named is T1, Serine/threonine-protein kinase RIO1 (Homo sapiens). Briefly: Binding affinity to wild-type human full length RIOK1 (M1 to K568 residues) expressed in bacterial expression system assessed as residual activity at 1 uM by KINOMEscan assay relative to control.
The subject of data set [10] is MKN-1. The data set can be described thus: Antitumor activity against human MKN-1 cells xenografted in CB17-SCID mouse assessed as tumor growth inhibition at 25 mg/kg, ip qd for 18 consecutive days and measured once every 2 days relative to control. Type of data set: functional. Particulars: MKN-1, 432 h, time 18 day, read-out: TGI.
The target of data set [11] is T2, Serine/threonine-protein kinase RIO3 (Homo sapiens). The data set can be described thus: Binding affinity to wild-type human full length RIOK3 (M1 to E519 residues) expressed in bacterial expression system assessed as residual activity at 1 uM by KINOMEscan assay relative to control.
A short description of data set [12]: Oral bioavailability in Sprague-Dawley rat. Type of data set: ADME, organism-based. The conditions noted are these: in vivo.
Data set [13] is described as follows: Toxicity in CB17-SCID mouse xenografted with human MKN-1 cells assessed as side effects at 25 mg/kg, ip qd for 18 consecutive days. The data set is classed as organism-based. The conditions noted are these: in vivo, 432 h, time 18 day.
The subject of data set [14] is T3, Receptor-type tyrosine-protein kinase FLT3 (Homo sapiens), P36888 [D835V].
T3 sequence (whole entry): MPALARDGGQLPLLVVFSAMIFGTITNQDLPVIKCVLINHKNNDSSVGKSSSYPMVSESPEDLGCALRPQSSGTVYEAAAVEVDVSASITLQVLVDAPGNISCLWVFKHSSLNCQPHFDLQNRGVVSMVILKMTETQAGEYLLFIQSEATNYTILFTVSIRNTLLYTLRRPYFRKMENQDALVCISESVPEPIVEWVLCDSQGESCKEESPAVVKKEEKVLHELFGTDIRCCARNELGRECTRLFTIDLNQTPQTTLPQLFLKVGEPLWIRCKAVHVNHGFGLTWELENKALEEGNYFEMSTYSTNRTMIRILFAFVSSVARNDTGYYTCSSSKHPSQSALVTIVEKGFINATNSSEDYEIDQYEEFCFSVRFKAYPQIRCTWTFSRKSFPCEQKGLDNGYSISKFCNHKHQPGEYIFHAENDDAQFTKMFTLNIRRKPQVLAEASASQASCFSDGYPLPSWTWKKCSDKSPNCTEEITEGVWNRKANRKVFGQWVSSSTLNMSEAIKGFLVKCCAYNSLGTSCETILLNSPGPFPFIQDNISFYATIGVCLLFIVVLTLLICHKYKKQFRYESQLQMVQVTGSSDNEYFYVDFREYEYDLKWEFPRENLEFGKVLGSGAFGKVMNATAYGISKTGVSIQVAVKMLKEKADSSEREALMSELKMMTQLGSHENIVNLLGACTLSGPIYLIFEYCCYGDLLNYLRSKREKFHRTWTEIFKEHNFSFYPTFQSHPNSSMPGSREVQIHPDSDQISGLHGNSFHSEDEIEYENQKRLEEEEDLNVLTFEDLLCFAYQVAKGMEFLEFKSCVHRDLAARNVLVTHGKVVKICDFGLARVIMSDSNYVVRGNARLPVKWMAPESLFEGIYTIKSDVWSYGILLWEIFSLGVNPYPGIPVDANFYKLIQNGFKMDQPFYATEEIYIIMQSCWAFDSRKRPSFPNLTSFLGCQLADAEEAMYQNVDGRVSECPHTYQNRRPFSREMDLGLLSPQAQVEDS
The data set can be described thus: Binding affinity to human partial length FLT3 D835V mutant (V592 to Y969 residues) expressed in mammalian expression system assessed as residual activity at 1 uM by KINOMEscan assay relative to control.

The species named for data set [15] is Homo sapiens. The data set can be described thus: Binding affinity to human partial length FLT3 ITD F691L mutant expressed in mammalian expression system assessed as residual activity at 1 uM by KINOMEscan assay relative to control.

As for `COc1ccc(-c2ccc3[nH]c(=O)c4nnn(-c5ccc(N6CCNCC6)c(C(F)(F)F)c5)c4c3c2)cn1`, the result in data set [1] and in data set [4] was Active. Besides, the results for the IC50 with HT-29 and with MKN-1 [5] were 0.38 µM and 0.61 µM, respectively. The solubility entry in data set [2] and in [7] was “Insoluble” in each case. The Activity in the data set listed under Homo sapiens [3] was 4%; in [6] it was “Non-Toxic”; in data set [9], 100%; in data set [11], 87%; in [13], “Non-Toxic”; in data set [14], 28%. The Activity in the data set listed under Homo sapiens [15] is 3.6%. For the same compound, the Cmax in data set [8] is 13 ng/mL. Further, the inhibition in vivo at 25 mg/kg with MKN-1 [10] was determined as 30.9%. In [12], this compound gave a bioavailability of 3.06%.
Turning to `COc1ccc(-c2ccc3[nH]c(=O)c4nnn(-c5ccccc5)c4c3c2)cn1`, the IC50 in the data set on HT-29 and with MKN-1 [5] was greater than 8 µM throughout.
As for `Cc1ccnc(NC(=O)Cc2ccc3ccccc3c2)c1`, the IC50 in the data set with HT-29 and in the data set on MKN-1 [5] was greater than 8 µM throughout.

In general, IC50 refers to the point on the concentration scale where inhibition reaches its midpoint. As usually defined, the Cmax is the peak of the concentration-time curve. By bioavailability is commonly meant the share of a dose that reaches the circulation, judged against a reference dose that is usually intravenous. The low end stands for little systemic uptake, the high end for much systemic uptake.
